In PMC11549390, “Activity, structure, and diversity of Type II proline-rich antimicrobial peptides from insects” (EMBO Reports, 2024):
Where two headings read alike, the source gives them in different places. No end group written: not given here.

Columns and labels:
[1] = tested on: E. coli strain BL21 cells transformed with the pRXG(UGA) plasmid; assay: Stop codon readthrough assay (RFP-UGA-GFP reporter, drop-diffusion); type: cell-based, Escherichia coli; settings: subinhibitory concentrations, M9 agar, 2 µL of 2 mM peptide, 37 °C 16 h, three independent experiments
Description: Figure 4 Newly identified PrAMPs cause stop codon readthrough in bacterial cells. Top: In-frame fused genes encoding the reporter proteins RFP and GFP in the pRXG plasmid (Monk et al, [2017]) are separated by an UGA stop codon. […] Api and the modified Api137 (Berthold et al, [2013]) were spotted for comparison. […] Shown are representative plates from three independent experiments.
Stop codon readthrough activity of PrAMPs was determined as previously described (Mangano et al, [2023]). Briefly, E. coli strain BL21 cells transformed with the pRXG(UGA) plasmid (Monk et al, [2017]) were plated as described above for the drop-diffusion test, except that the bacterial lawn was formed on M9 medium/agar plates supplemented with 50 µg/ml of Kan and 0.2% glucose. Peptide solutions (2 µL of 2 mM stocks) were applied. The plates were incubated at 37 °C for 16 h and imaged in Cy2 (GFP) or Cy3 (RFP) channels using the BioRad ChemiDoc Touch imaging system. The images were processed using Image Lab software (BioRad).

[2] = tested on: K. pneumoniae AR-0112; type: cell-based, Klebsiella pneumoniae
Description: (§1) The minimal inhibitory concentration (MIC) test for the E. coli laboratory strain BL21 and the K. pneumoniae multi-drug-resistant clinical strain AR-0112 (CDC and FDA Antibiotic Resistance Isolate Bank) was performed using the broth microdilution method, adapted from a previously described procedure (Wiegand et al, [2008]). The MIC tests were conducted either in 33% Tryptic Soy Broth (TSB) (Berthold et al, [2013]), or in RPMI/Serum (prepared by combining Roswell Park Memorial Institute medium 1640, Mueller Hinton Broth, and fetal bovine serum in the proportion 100:5:20, v/v/v) (Belanger et al, [2020]).

[3] = tested on: E. coli BL21; type: cell-based, Escherichia coli
Description: as §1

MIC ([2]; AR-0112)	MIC ([3]; BL21)	Compound	also measured
		O=C(N[C@H](CO)[C@H](O)c1ccc([N+](=O)[O-])cc1)C(Cl)Cl [chloramphenicol]	Induction of stop codon readthrough (GFP halo) [1]: does not induce stop codon readthrough
2 µM		AHKPVYVPPPRPPHPRL [Nme2]	
1 µM		ALNRPVYVPPPRPPHPRL [Mge1]	
	0.25 µM	GKPNKPRPAPIKPRPPHPRL [Pdi2]	
		GNRPNIPTYIPRPRPPHPRL [Fva1]	MIC ([3]; E. coli BL21, 33% TSB, broth microdilution, performed in triplicate): 0.125 µM; MIC ([3]; E. coli BL21, RPMI/Serum (RPMI 1640:Mueller Hinton Broth:fetal bovine serum 100:5:20), broth microdilution, performed in triplicate): 0.25 µM; MIC ([2]; K. pneumoniae AR-0112 (multi-drug-resistant clinical strain), 33% TSB, broth microdilution, performed in triplicate): 1 µM; MIC ([2]; K. pneumoniae AR-0112, RPMI/Serum (RPMI 1640:Mueller Hinton Broth:fetal bovine serum 100:5:20), broth microdilution, performed in triplicate): 16 µM
	0.25 µM	GSKPVRPPPPIRPRPPHPRL [Btr1]	
	>64 µM	GSRLMYLPPPPCSPYLHF [Baf1]	
2 µM		NRPTYVPPPRPPHPRL [Ssp1]	
2 µM		SNKPRPQQVPPRPPHPRL [Vma1]	
	>64 µM	SNRPVYIPPPRSPHPRL [Bvo1]	
